From patent publication US20090131354A1, “miR-126 REGULATED GENES AND PATHWAYS AS TARGETS FOR THERAPEUTIC INTERVENTION” (priority 2007, published 2009)

Columns and labels:
[1] = tested on: SCLC and NSCLC cells; conditions: various lung cancer cells; cited from earlier work
[2] = tested on: H460 lung cancer cells; experiment: Dose-dependent inhibition of proliferation (Alamar Blue), H460; assay type: cell-based, human; conditions: normalized to mock-transfected cells (0 pM = 100%)
Experimental: (§1) Lipid-based reverse transfections were carried out in triplicate according to a published protocol (Ovcharenko et al., 2005) and the following parameters: Cells (5,000-12,000 per 96 well), 0.1-0.2 μl Lipofectamine™ 2000 (cat. no. 11668-019, Invitrogen Corp., Carlsbad, Calif., USA) in 20 μl OptiMEM (Invitrogen), 30 nM final concentration of miRNA in 100 μl. Electroporation of H226 cells was carried out using the BioRad Gene Pulser Xcell™ instrument (BioRad Laboratories Inc., Hercules, Calif., USA) with the following settings: 5×10^6 cells with 5 μg miRNA in 200 μl OptiMEM (1.6 μM miRNA), square wave pulse at 250 V for 5 ms. Electroporated H226 cells were seeded at 7,000 cells per 96-well in a total volume of 100 μl. All cells except for Calu-3 cells were harvested 72 hours post transfection or electroporation for assessment of cellular proliferation. Calu-3 cells were harvested 10 days post transfection. Proliferation assays were performed using Alamar Blue (Invitrogen) following the manufacturer's instructions. As a control for inhibition of cellular proliferation, siRNA against the motor protein kinesin 11, also known as Eg5, was used. Eg5 is essential for cellular survival of most eukaryotic cells and a lack thereof leads to reduced cell proliferation and cell death (Weil et al., 2002). siEg5 was used in lipid-based transfection following the same experimental parameters that apply to miRNA. The inventors also used a DNA topoisomerase II inhibitor, etoposide, at a final concentration of 10 μM and 50 μM as an internal standard for the potency of miRNAs. Etoposide is an FDA-approved DNA topoisomerase II inhibitor in the treatment of lung cancer. […] Percent (%) proliferation values from the Alamar Blue assay were normalized to values from cells treated with negative control miRNA. Percent proliferation of hsa-miR-126 treated cells relative to cells treated with negative control miRNA (100%) is shown in Table 6 and in FIG. 1.
(§2) The inventors determined sensitivity and specificity of hsa-miR-126 by administering hsa-miR-126 or negative control miRNA at increasing concentrations, ranging from 0 pM to 3,000 pM (Table 7, FIG. 2). Delivery of miRNA and assessment of cellular proliferation of A549 and H460 cells were done as described above. Proliferation values from the Alamar Blue assay were normalized to values obtained from mock-transfected cells (0 pM=100% proliferation). Increasing amounts of negative control miRNA (NC) had no effect on cellular proliferation of A549 or H460 cells (Table 7 and FIG. 2). In contrast, the growth-inhibitory phenotype of hsa-miR-126 is dose-dependent and correlates with increasing amounts of hsa-miR-126 (Table 7 and FIG. 2). Hsa-miR-126 induces a specific therapeutic response at concentrations as low as 300 pM.

[3] = tested on: lung cancer (A549, HTB-57) or cervical cancer (HeLa) cells; conditions: A549, HTB-57, HeLa; miRNA given before the compound; cited from earlier work
[4] = tested on: prostate cancer cells PPC-1, Du145, LNCaP and RWPE2; experiment: Alamar Blue proliferation assay, all prostate cancer cell lines tested; assay type: cell-based, human
Text: (§3) The inventors assessed the therapeutic effect of hsa-miR-126 for prostate cancer by using 4 individual human prostate cancer cell lines. To measure cellular proliferation of prostate cancer cells, the following prostate cancer cell lines were used: PPC-1, derived from a bone metastasis; Du145, derived from a brain metastasis; RWPE2, derived from prostate cells immortalized by human papillomavirus 18 and transformed by the K-RAS oncogene; and LNCaP, derived from a lymph node metastasis (Stone et al., 1978; Horoszewicz et al., 1980; Brothman et al., 1991; Pretlow et al., 1993; Bello et al., 1997). PPC-1 and Du145 cells lack expression of the prostate-specific antigen (PSA) and are independent of androgen receptor (AR) signaling. In contrast, RWPE2 and LNCaP cells test positive for PSA and AR. Cells were transfected with synthetic hsa-miR-126 (Pre-miR™-hsa-miR-126, Ambion cat. no. AM 17100) or negative control miRNA (NC; Pre-miR™ microRNA Precursor Molecule-Negative Control #2; Ambion cat. no. AM17111) in a 96-well format using a lipid-based transfection reagent. […] Proliferation was assessed 4-7 days post-transfection using Alamar Blue™ (Invitrogen) following the manufacturer's instructions. […] Fluorescent light units (FLU) were measured after 3 hours, normalized to the control, and plotted as percent change in proliferation. […]

[5] = tested on: RWPE2 prostate cancer cells; experiment: Alamar Blue proliferation assay, RWPE2; assay type: cell-based, human; conditions: 30 nM, normalized to negative control miRNA (100% proliferation)
Text: as §3

[6] = tested on: A549 lung cancer cells; experiment: Dose-dependent inhibition of proliferation (Alamar Blue), A549; assay type: cell-based, human; conditions: for % proliferation: normalized to mock-transfected cells (0 pM = 100%)
Experimental: as §1, §2

[7] = tested on: LNCaP prostate cancer cells; experiment: Alamar Blue proliferation assay, LNCaP; assay type: cell-based, human; conditions: 30 nM, normalized to negative control miRNA (100% proliferation)
Text: as §3

COc1cc([C@@H]2c3cc4c(cc3[C@@H](O[C@@H]3O[C@@H]5CO[C@@H](C)O[C@H]5[C@H](O)[C@H]3O)[C@H]3COC(=O)[C@H]23)OCO4)cc(OC)c1O [etoposide]
IC50 [1]: 1 to 25 µM

hsa-miR-126 (UCGUACCGUGAGUAAUAAUGC; synthetic pre-miR form, further chemistry not given here) [Synthetic hsa-miR-126 (Pre-miR™-hsa-miR-126, Ambion cat. no. AM17100)]
% proliferation ([2]; H460 cells, 3 pM miRNA): 105.60% | % proliferation ([2]; H460 cells, 30 pM miRNA): 108.98% | % proliferation ([2]; H460 cells, 300 pM miRNA): 86.46% | % proliferation ([2]; H460 cells, 3,000 pM miRNA): 33.91% | effect on cell death induced by therapeutic compound (e.g., etoposide) [3]: increased the capacity of the therapeutic compound to induce death | average inhibition of cellular proliferation ([4]; average of PPC-1, Du145, LNCaP, RWPE2, 30 nM): 23.07% | growth-inhibitory activity compared with siEg5 ([4]; prostate cancer cell lines, 30 nM): comparable to that of Eg5-directed siRNA | % proliferation [5]: 91.82% | growth-inhibitory phenotype, dose dependence ([6]; A549 and H460, 0 pM to 3,000 pM): dose-dependent | concentration inducing a specific therapeutic response ([6]; A549 and H460, 0 pM to 3,000 pM tested): ≥ 300 pM | % proliferation ([6]; A549 cells, 3 pM miRNA): 95.40% | % proliferation ([6]; A549 cells, 30 pM miRNA): 92.87% | % proliferation ([6]; A549 cells, 300 pM miRNA): 80.93% | % proliferation ([6]; A549 cells, 3,000 pM miRNA): 74.50% | % proliferation [7]: 80.59%
